Measurements reported in patent US20250136581A1, “SUBSTITUTED TRIAZOLE DERIVATIVE, PREPARATION METHOD THEREFOR, PHARMACEUTICAL COMPOSITION THEREOF, AND USE THEREOF” (SHANGHAI SIMR BIOTECHNOLOGY CO., LTD., priority 2021, published 2025).
Where two headings read alike, the source gives them in different places.

How the values were obtained:
[1] = biological target: human α5β3γ2 receptors (α5-GABAA receptor) (Homo sapiens (Human), UniProt P18507+P31644); assay: 3H-flunitrazepam competition binding, human α5β3γ2 GABAA receptor; details: HEK293 cell membranes, 1 nM 3H-flunitrazepam; read-out: α5-GABAAR Ki
How it was run: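 Radioligand displacement of 1 nM 3H-flunitrazepam from membranes of HEK293 lines stably expressing the human subtypes, 1 h at room temperature, compound in 8-point 4-fold series. Bound label on GF/C filters counted by scintillation; Ki derived from fitted IC50, with flumazenil as low control.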

human α3β3γ2 receptors = human α3β3γ2 receptors (Homo sapiens (Human), UniProt P18507+P34903); assay: 3H-flunitrazepam competition binding, human α3β3γ2 GABAA receptor; details: HEK293 cell membranes, 1 nM 3H-flunitrazepam; read-out: Ki α3
Description: (§1) The affinity of the compound to each subtype of GABAA receptor was determined by competing for the binding of ^3H-flunitrazepam to HEK293 cells stably expressing human α1β3γ2, α2β3γ2, α3β3γ2, and α5β3γ2 receptors.
(§2) The cells were suspended in 50 mM Tris-HCl buffer (pH=7.4), homogenized 10 times on ice with a homogenizer for 20 seconds, and centrifuged at 1000 g for 10 minutes at 4° C. The supernatant was collected, and the above steps were repeated. The supernatant was centrifuged at 4° C. (33800 g; Thermo, rotor: A27-8×50) for 60 minutes, and the precipitate was resuspended in Tris buffer (50 mM Tris-HCl, 10 mM MgCl2, 0.5 mM EDTA, 10% glycerol). Protein was measured (BCA method, Pierce), and 1 mL aliquots were prepared and stored at −80° C.
(§3) The radioligand competition binding assay was performed in a 200 μL system (96-well plate) containing 100 μL of cell membrane. The concentration of ^3H-flunitrazepam was 1 nM and the concentration of the test compound was in the range of […]. Flumazenil was used as a control. 1 μL of 2 mM flumazenil (final concentration […]) was added to the low signal control well (Low control, LC), and 1 μL of DMSO was added to the high signal control well (High control, HC). The final concentration of target membrane protein was […]. All test compound sample storage solutions were 10 mM. The working concentration of the samples was to dilute all the samples to 0.2 mM with DMSO, followed by 4-fold serial gradient dilutions for a total of 8 concentration gradients. The 96-well plate was sealed with a sealing film, and then incubated on a shaker at room temperature for 1 hour. At the same time, the GF/C filter plate was soaked in soaking buffer (0.3% PEI, stored at 4° C.) for at least 0.5 hours. After the binding incubation was completed, the cells were collected onto a GF/C filter plate using a cell harvester. The plate was washed four times with washing buffer (50 mM Tris-HCl, pH 7.4, stored at 4° C.). After drying in a 50° C. oven for 1 hour, the bottom of the dried GF/C filter plate was sealed. The residual radioactivity on the filter membrane was detected using liquid scintillation counting. 50 μL of scintillation fluid was added to each well, and the plate was sealed. The readings were taken using a Microbeta2. The inhibitory activity of the test sample on the binding of ^3H-flunitrazepam to GABAA receptor membrane proteins was calculated, and the IC50 of each test sample was calculated by dose-effect curve fitting (GraphPad Prism 5 software), and the Ki of the sample was calculated from the IC50, thus evaluating the binding ability of the sample to the various subtypes of GABAA receptors.

human α1β3γ2 receptors = human α1β3γ2 receptors (Homo sapiens (Human), UniProt P14867+P18507); assay: 3H-flunitrazepam competition binding, human α1β3γ2 GABAA receptor; details: HEK293 cell membranes, 1 nM 3H-flunitrazepam; read-out: Ki α1
Description: as §1, §2, §3

human α2β3γ2 receptors = human α2β3γ2 receptors (Homo sapiens (Human), UniProt P18507+P47869); assay: 3H-flunitrazepam competition binding, human α2β3γ2 GABAA receptor; details: HEK293 cell membranes, 1 nM 3H-flunitrazepam; read-out: Ki α2
Description: as §1, §2, §3

[2] = biological target: α5-GABAA receptor (α5, β3, γ2 subunits) (Homo sapiens (Human), UniProt P18507+P31644); assay: Whole cell patch clamp, inverse agonist efficacy in HEK293 cells expressing α5-GABAA receptor; format: cell-based; details: GABA 0.05 μM, −60 mV; for inhibition at 0.1 µM: HEK293, drug 100 nM, read-out: Compound inverse agonist efficacy %
How it was run: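 Compounds screened at 100 nM against current induced by 0.05 μM GABA in monoclonal HEK293 cells stably expressing α5β3γ2 GABAA receptors. Recording by whole-cell voltage clamp (−60 mV, pH 7.4 bath, CsCl pipette); efficacy calculated from leak-corrected currents before and after drug.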

[3] = Rat pharmacokinetic experiment; format: in vivo; details: rat, po; for Kp: male, SD, brain / plasma, read-out: B/P (proportion of compounds entering the brain); for Cmax: plasma, male SD rats
Description: The maximum plasma concentration (Cmax) in the rat pharmacokinetic experiment was used to evaluate the absorption of the compounds in rat in vivo. The experimental compound was dissolved and then orally administered by gavage (p.o.) to male SD rats. The rats were fasted overnight before drug administration, and blood was collected via venipuncture at 0.25, 0.5, 1, 2, 4, and 7 hours post dose. Approximately 100 μL blood was collected for each sample; at the same time, the whole brain was taken and homogenized with 3 times the amount of PBS for analysis. The […] method was used to determine drug concentrations in plasma and brain tissue, and the proportion of compounds entering the brain (B/P) was calculated based on the AUC of the compound. Pharmacokinetic parameters were calculated using Phoenix WinNonlin 7.0. The administration vehicle was 5% CMC-Na aqueous solution.

Compound | Ki [1] | Ki (human α3β3γ2 receptors) | Ki (human α1β3γ2 receptors) | Ki (human α2β3γ2 receptors) | inhibition at 0.1 µM [2] | Kp ([3]; 1 mg/kg) | Cmax ([3]; 1 mg/kg) | Kp ([3]; 3 mg/kg) | Cmax ([3]; 3 mg/kg) | Compound inverse agonist efficacy % ([2]; drug 100 nM)
Cc1nnn(-c2ccc(C(F)F)cc2)c1COc1ccc(N2CC(=O)N3CCC[C@H]3C2)nn1 [Example 14, (S)-2-(6-((1-(4-(difluoromethyl)phenyl)-4-methyl-1H-1,2,3-triazol-5-yl)methoxy)pyridazin-3-yl)hexahydropyrrolo[1,2-a]pyrazin-4(1H)-one] | 1.24 nM |  |  |  | 45.7% |  |  | 0.0135 | 2700 ng/mL | 
Cc1nnn(-c2ccc(C(F)F)cc2)c1COc1ccc(N2CCN(CCN3CCCC3)C(=O)C2)nn1 [Example 61, 4-(6-((1-(4-(Difluoromethyl)phenyl)-4-methyl-1H-1,2,3-triazol-5-yl)methoxy)pyridazin-3-yl)-1-(2-(pyrrolidin-1-yl)ethyl)piperazin-2-one] | 2.12 nM | 13.1 nM | 126 nM | 26 nM | 49% |  |  |  |  | 
Cc1nnn(-c2ccc(C(F)F)cc2)c1COc1ccc(N2CCN3CCN(C4CC4)C(=O)[C@@H]3C2)nn1 [Example 148, (S)-2-Cyclopropyl-8-(6-((1-(4-(difluoromethyl)phenyl)-4-methyl-1H-1,2,3-triazol-5-yl)methoxy)pyridazin-3-yl)hexahydro-2H-pyrazino[1,2-a]pyrazin-1(6H)-one] | 2.5 nM | 56.2 nM | 445 nM | 117 nM | 42.6% |  |  |  |  | 
Cc1nnn(-c2ccc(C(F)F)cc2)c1COc1ccc(N2CCN[C@H](C(=O)O)C2)nn1 [Example 27, (S)-4-(6-((1-(4-(Difluoromethyl)phenyl)-4-methyl-1H-1,2,3-triazol-5-yl)methoxy)pyridazin-3-yl)piperazine-2-carboxylic acid] | 3.65 nM | 135 nM | 333 nM | 107 nM | 59.1% |  |  |  |  | 
Cc1nnn(-c2ccc(F)cc2)c1COc1ccc(N2CCNC(=O)C2)nn1 [Example 76, 4-(6-((1-(4-Fluorophenyl)-4-methyl-1H-1,2,3-triazol-5-yl)methoxy)pyridazin-3-yl)piperazin-2-one] | 2.87 nM | 173 nM | 832 nM | 301 nM | 45.3% |  |  |  |  | 
Cc1nnn(-c2ccc(C(F)F)cc2)c1COc1ccc(N2CCN3CCNC(=O)[C@@H]3C2)cn1 [Example 56, (S)-8-(6-((1-(4-(Difluoromethyl)phenyl)-4-methyl-1H-1,2,3-triazol-5-yl)methoxy)pyridin-3-yl)octahydro-1H-pyrazino[1,2-a]pyrazin-1-one] | 7.99 nM |  |  | 330 nM | 53.4% |  |  | 0.0261 | 2050 ng/mL | 

Results, then the compound that gave them:

Ki [1] | Ki (human α3β3γ2 receptors) | Ki (human α1β3γ2 receptors) | Ki (human α2β3γ2 receptors) | inhibition at 0.1 µM [2] | Kp ([3]; 1 mg/kg) | Cmax ([3]; 1 mg/kg) | Kp ([3]; 3 mg/kg) | Cmax ([3]; 3 mg/kg) | Compound inverse agonist efficacy % ([2]; drug 100 nM) | Compound
1.32 nM | 23.4 nM | 47.8 nM | 45.4 nM | 50.3% | 0.0336 | 637 ng/mL |  |  |  | Cc1nnn(-c2ccc(C(F)F)cc2)c1COc1ccc(N2CCN(C)C(=O)C2)nn1 [Example 26, 4-(6-((1-(4-(Difluoromethyl)phenyl)-4-methyl-1H-1,2,3-triazol-5-yl)methoxy)pyridazin-3-yl)-1-methylpiperazin-2-one]
1.77 nM |  |  |  | 49.9% |  |  | 0.0095 | 3890 ng/mL |  | Cc1nnn(-c2ccc(C(F)F)cc2)c1COc1ccc(N2CC(C(=O)N3CCOCC3)C2)nn1 [Example 104, (1-(6-((1-(4-(Difluoromethyl)phenyl)-4-methyl-1H-1,2,3-triazol-5-yl)methoxy)pyridazin-3-yl)azetidin-3-yl)(morpholino)methanone]
2.31 nM | 50.3 nM | 158 nM | 70.1 nM |  |  |  |  |  | −68.71% | Cc1nnn(-c2ccc(C(F)F)cc2)c1COc1ccc(N2CCN3CC(C4CC4)NC(=O)[C@@H]3C2)nn1 (single isomer, unassigned) [Example 204]
1.21 nM | 44.6 nM | 140 nM | 64.2 nM | 51.2% |  |  | 0.0099 | 2670 ng/mL |  | O=C1NCCN2CCN(c3ccc(OCc4c(Cl)nnn4-c4ccc(C(F)F)cc4)nn3)C[C@@H]12 [Example 181, (S)-8-(6-((4-Chloro-1-(4-(difluoromethyl)phenyl)-1H-1,2,3-triazol-5-yl)methoxy)pyridazin-3-yl)hexahydro-2H-pyrazino[1,2-a]pyrazin-1(6H)-one]
1.66 nM |  |  |  | 52.2% |  |  | 0.0208 | 1780 ng/mL |  | Cc1nnn(-c2ccc(C(F)F)cc2)c1COc1ccc(N2CCN(C3CC3)C(=O)C2)nn1 [Example 108, 1-Cyclopropyl-4-(6-((1-(4-(difluoromethyl)phenyl)-4-methyl-1H-1,2,3-triazol-5-yl)methoxy)pyridazin-3-yl)piperazin-2-one]
9.75 nM | 195 nM | 911 nM | 168 nM | 56.3% |  |  |  |  |  | Cc1ccc(-n2nnc(C)c2COc2ccc(N3CCN4CCNC(=O)[C@@H]4C3)nn2)cc1 [Example 129, (S)-8-(6-((4-Methyl-1-(p-tolyl)-1H-1,2,3-triazol-5-yl)methoxy)pyridazin-3-yl)octahydro-1H-pyrazino[1,2-a]pyrazin-1-one]
2.15 nM | 28.6 nM | 145 nM | 19.8 nM | 58.8% |  |  |  |  |  | Cc1nnn(-c2ccc(C(F)F)cc2)c1COc1ccc(N2CCNC(=O)C2)nn1 [Example 2, 4-(6-((1-(4-(Difluoromethyl)phenyl)-4-methyl-1H-1,2,3-triazol-5-yl)methoxy)pyridazin-3-yl)piperazin-2-one]
2.08 nM | 36.7 nM | 400 nM | 23.7 nM | 55% |  |  |  |  |  | Cn1nnc(-c2ccc(C(F)F)cc2)c1COc1ccc(N2CCNC(=O)C2)nn1 [Example 127, 4-(6-((4-(4-(Difluoromethyl)phenyl)-1-methyl-1H-1,2,3-triazol-5-yl)methoxy)pyridazin-3-yl)piperazin-2-one]
0.82 nM | 16 nM | 161 nM | 22.7 nM | 54.8% |  |  |  |  |  | O=C1CN(c2ccc(OCc3c(CO)nnn3-c3ccc(C(F)F)cc3)nn2)CCN1 [Example 80, 4-(6-((1-(4-(Difluoromethyl)phenyl)-4-(hydroxymethyl)-1H-1,2,3-triazol-5-yl)methoxy)pyridazin-3-yl)piperazin-2-one]
